Laboratory results: patent US9573930B2 (Quanticel Pharmaceuticals, Inc., priority 2014, dated 2017)

target: full-length human LSD1 (Homo sapiens (Human), UniProt O60341); test: In vitro enzyme inhibition assay LSD-1 (TR-FRET); type: biochemical; settings: H3K4me1-biotin peptide
Protocol: This assay determines the ability of a test compound to inhibit LSD1 demethylase activity.
The enzymatic assay of LSD1 activity is based on Time Resolved-Fluorescence Resonance Energy Transfer (TR-FRET) detection.
The ability of the compounds disclosed herein to inhibit LSD1 activity was quantified and the respective IC50 value was determined.

IC50 | SMILES
> 10000 nM | COc1ccc(-c2c(-c3cccc(C#N)c3)nc(N3CCC(N)CC3)n(C)c2=O)cc1F [Example 118, 3-[2-(4-aminopiperidin-1-yl)-5-(3-fluoro-4-methoxyphenyl)-1-methyl-6-oxopyrimidin-4-yl]benzonitrile]
> 10000 nM | COc1ccc(-c2c(-c3ccccc3C#N)nc(N3CCC(N)CC3)n(C)c2=O)cc1F [Example 119, 2-[2-(4-aminopiperidin-1-yl)-5-(3-fluoro-4-methoxyphenyl)-1-methyl-6-oxopyrimidin-4-yl]benzonitrile]
100 to 1000 nM | Cn1c(N2CCC(N)CC2)nc(-c2ccc(C#N)c(F)c2)c(C#N)c1=O [Example 121, 2-(4-amino-piperidin-1-yl)-4-(4-cyano-3-fluoro-phenyl)-1-methyl-6-oxo-1,6-dihydro-pyrimidine-5-carbonitrile]
< 100 nM | COc1ccc(-c2c(-c3ccc(C#N)c(F)c3)nc(N3CCC(N)CC3)[nH]c2=O)cc1 [Example 122, 4-[2-(4-amino-piperidin-1-yl)-5-(4-methoxy-phenyl)-6-oxo-1,6-dihydro-pyrimidin-4-yl]-2-fluoro-benzonitrile]
